Here are results for six molecules from US6294521A, “Phosphosugars and phosphosugar-containing compounds having anti-inflammatory activity” (Australian National University, priority 1996, dated 2001).

The term inhibition denotes the change of the read-out against control, counted positive when it falls. Read a low inhibition as a weak effect.

The nature of assay [1]: Inhibition of passively-transferred EAE in rats, parenteral treatment. Conditions: for inhibition of development of disease (EAE), in words: 8 hourly subcutaneous doses for seven days, 220 mg/kg/day (mannose-6-phosphate), 200 mg/kg/day (others); for % with clinical signs of EAE: n=5; for % with clinical signs of EAE / Mean Maximum clinical score: 220 mg/kg/day (mannose 6-P) or 200 mg/kg/day (others); for Mean Maximum clinical score: controls 2.8 (saline), 3.3 (PEG 200). The format is in vivo, Lewis rats. How it is done:
International Patent PCT/AU89/00350 identified several simple phosphosugars which had potent anti-inflammatory activity against cell-mediated inflammatory diseases such as EAE. The novel mannose 6-phosphate derivatives of the present invention have improved pharmacodynamic and pharmacokinetic properties. Thus, some of these agents are effective against EAE when they are injected either subcutaneously or intraperitoneally in rats, whereas the parent substance, mannose-6-phosphate is ineffective when administered in this manner.
In this Example, some typical novel mannoside 6-phosphates of the present invention were compared with mannose-6-phosphate for their ability to inhibit the development of […] in rats. In this experiment, according to the method of Panitch and McFarlin (18), donor Lewis rats were immunised with 50 μg myelin basic protein in complete Freund's adjuvant and 10-12 days later the spleens from these rats were removed and made into a single cell suspension. Thus, these cells, 2×10^6 ml^-1, were cultured in RPMI medium with 5% fetal calf serum, 5×10^-5 M 2-mercaptoethanol, 2 mM L-glutamine plus 30 μg/ml penicillin, 50 μg/ml streptamycin sulfate. Con A was added at 2 μg ml^-1 and cultures were incubated at 37° C. in a humidified atmosphere of 5% CO2, 7% O2 and the balance N2. Cells were harvested after 72 hours, washed once wit Hanks balanced salt solution, and 70×10^6 viable cells were then transferred to naive Lewis rat recipients via a lateral tail vein in order to induce EAE.

A short description of assay [2]: Contact sensitivity to picryl chloride, ear swelling. The format is in vivo, CBA female mice. Particulars: n=5; for inhibition at 330 mg/kg/day: Mus musculus, sc, Table 3, 6 injections s.c.; for % swelling: Table 3, 330 mg/kg/day, 6 injections s.c., control = 100. The text has this: Contact sensitivity is a type of delayed hypersensitivity which ours following exposure to sensitising agents including low molecular weight reactive chemical entities such as dinitro chlorobenzene (DNCB) and picryl chloride (19,21) as well as the sensitising agents found in poison ivy and poison oak (19). In sensitised individuals, in those having previously been exposed to the sensitising agent, inflammatory leucocytes migrate from the blood stream into the area immediately beneath the affected tissue producing induration which is a cardinal characteristic of the delayed-type hypersensitivity reaction (21). Thus, contact sensitivity is a well recognised cell-mediated inflammatory response. In the experiment outlined below the novel mannoside 6-phosphates were compared with mannose-6-phosphate for their ability to inhibit contact sensitivity induced by picryl chloride.
In this experiment twenty CBA female mice were sensitised to picqyl chloride after the method of Enander et al., (22) by applying 200 μl of picryl chloride solution (0.5% in 95% ethanol) to an area (approximately 2 cm^2) of their shaved abdomens. Seven days following sensitisation these animals were divided into four groups of five mice which bad been treated with either mannose-6-phosphate (55 mg/kg), methyl mannoside 6-phosphate (330 mg/kg) or decyl mannoside 6-phosphate (55 mg/kg) or saline (control) 30 minutes before they were challenged by applying 100 μl of picryl chloride solution (1% in 95% ethanol) to both sides of their left ears. Their right ears (control) were treated with 100 μl of 95% ethanol. Three and one half hours following challenge a second injection of drug or saline was given and this was repeated four times at 4 hour intervals. Four hours following the last injection the mice were anaesthetised (ether) and the contact sensitivity determined by comparing the thickness of the picryl chloride treated ears with those of the control ears. As shown in Table 3 the novel mannoside phosphates inhibited accumulation of inflammatory cells in challenged ears more effectively than mannose-6-phosphate.

Assay [3] in a line: Delayed-type hypersensitivity (DTH) footpad swelling, sheep red blood cell antigen. The format is in vivo, CBA mice. Conditions: Table 2, q.i.d. s.c., n=5, mean, 220 mg/kg/day (mannose 6-phosphate) or 200 mg/kg/day (others); for inhibition at 220 mg/kg: Mus musculus, Erythrocyte; for % swelling: control = 100.
For assay [4] the following is noted: experimental animals; EAE, adjuvant-induced arthritis, DTH; WO 90/01938; cited from earlier work.
Assay [5] has as its system mannose-6-phosphate receptor (insulin-like growth factor II or IGF-II receptor). Briefly: Competitive binding assay: uptake of fluorescein-labelled polysaccharide (PPME) by U937 monocytes. Conditions: uptake of fluoresceinated-PPME (100 μg/ml), U937 cells, 60 minutes at 37° C.; FIG. 1. Format: cell-based, human (U937 cell line). The text has this: The novel mannoside 6-phosphates have similar affinities for the mannose-6-phosphate receptor (insulin-like growth factor II or IGF-II receptor) as the natural ligand, mannose-6-phosphate. In order to assess the binding of the novel mannoside 6-phosphates to the M6P receptor a competitive binding assay was used. In this assay a fluorescein-labelled, polysaccharide (PPME) which contains abundant mannose-6-phosphate groups, was used to detect uptake through the M6P receptor on human monocytes (U937 cell line). PPME was isolated and purified by the method of Bretthauer et al., (23) from the exopolysaccharide secreted by the yeast Pichia holstii. […]
The human monocyte cell line U937, which has a relatively high content of M6P receptors on its cell Surface (25), was obtained from the American Type Culture Collection (Rockville, Md.) and was maintained in RPMI 1640 medium (Gibco, Gaitersburg, Md.) supplemented with 2 mg/ml sodium bicarbonate, 0.2 mM glutamine, 30 μg/ml penicillin, 50 μg/ml streptamycin sulfate and 50 μg/ml neomycin sulfate and 10% foetal calf serum (FCS; Commonwealth Sarum Laboratories, Melbourne, Anstalia) at 37° C. […] Following incubations, the cells were washed twice with 10% FCS/RPMI and once with PBS and then fixed with 1% paraformaldehyde in PBS and analysed for fluorescence by flow cytometry. […]

[6] abbreviates: Table 1, t.i.d. s.c., seven days.

Take `CCCCCCCCCCOC1O[C@H](COP(=O)(O)O)[C@@H](O)[C@H](O)[C@@H]1O` (stereo partly drawn) [decyl mannoside 6-P, Decyl D-mannoside 6-phosphate]: the “inhibition of development of disease (EAE), in words” value (from here on “inhibition of development of disease”) in assay [1] was “completely inhibited the development of disease”. For the same molecule, in assay [1] (setting [6]), the “% with clinical signs of EAE” value is recorded as 0% and the “Mean Maximum clinical score” value came out at 0. In addition, in assay [2], the inhibition at 330 mg/kg/day came out at 77% and the “% swelling” value was 23%. In assay [3], at 220 mg/kg the inhibition was 70% and the “% swelling” value amounted to 30%.

For the molecule `O=P(O)(O)OC[C@H]1OC(O)[C@@H](O)[C@@H](O)[C@@H]1O` (stereo partly drawn) [mannose-6-phosphate, D-mannose-6-phosphate, reference compound], the “inhibition of development of disease” value in assay [1] is reported as “ineffective in inhibiting development of disease symptoms”. For the same molecule, the “Mean Duration” value in assay [1] (Table 1, t.i.d. s.c., seven days, 220 mg/kg/day, saline control 4.1) is on record as 4.0 days. Also, the “Mean day of onset” value in assay [1] (Table 1, t.i.d. s.c., seven days, 220 mg/kg/day, saline control 5.2) is 5.2 days. In assay [1] (setting [6]), the “% with clinical signs of EAE” value is listed as 100% and the “Mean Maximum clinical score” value worked out at 2.8. The “effectiveness against EAE, in words” value in assay [1] (injected either subcutaneously or intraperitoneally in rats) was “ineffective”. In addition, the “anti-inflammatory activity against cell-mediated inflammatory diseases, in words” value in assay [4] was “shown to have anti-inflammatory activity”. Besides, in assay [2], the inhibition at 330 mg/kg/day was 17% and the “% swelling” value worked out at 83%. Moreover, in assay [3], the inhibition at 220 mg/kg stood at 20% and the “% swelling” value came out at 80%.

`O=P(O)(O)OC[C@H]1OC(OCCCCCCOC2O[C@H](COP(=O)(O)O)[C@@H](O)[C@H](O)[C@@H]2O)[C@@H](O)[C@@H](O)[C@@H]1O` (stereo partly drawn) [1,6-hexamethyene di(D-mannoside 6-phosphate)]: in assay [5], the “inhibition of binding of the natural ligand, in words” value was “effective inhibitor of binding”.

Consider `CO[C@H]1O[C@H](COP(=O)(O)O)[C@@H](O)[C@H](O)[C@@H]1O` [methyl mannoside 6-P, Methyl α-D-mannoside 6-phosphate], for which, in assay [2], the inhibition at 330 mg/kg/day was determined as 50% and the “% swelling” value is on record as 50%.

Turning to `O=P(O)(O)OC[C@H]1OC(OCCCCCCCCCCCCCCCCOC2O[C@H](COP(=O)(O)O)[C@@H](O)[C@H](O)[C@@H]2O)[C@@H](O)[C@@H](O)[C@@H]1O` (stereo partly drawn) [1,16-hexadecamethylene di(D-mannoside 6-phosphate)], the “inhibition of development of disease” value in assay [1] is reported as “completely inhibited the development of disease”. Further, in assay [1] (setting [6]), the “% with clinical signs of EAE” value is 0% and the “Mean Maximum clinical score” value is 0.

Take `CCCCCCCCCCCCCCCCOC1O[C@H](COP(=O)(O)O)[C@@H](O)[C@H](O)[C@@H]1O` (stereo partly drawn) [hexadecyl mannoside 6-P, hexadecyl D-mannoside 6-phosphate]: in assay [1], the “inhibition of development of disease” value was “completely inhibited the development of disease”. Besides, in assay [1] (setting [6]), the “% with clinical signs of EAE” value is given as 0% and the “Mean Maximum clinical score” value is on record as 0. Besides, in assay [3], testing at 220 mg/kg gave an inhibition of 80% and the “% swelling” value is 20%.
